How the values were obtained:
Test in all cases: stopped-flow CO2 hydration assay
Type in all cases: biochemical
Conditions in all cases: read-out: Topiramate; mean of […] assays, errors […]
hCA IX = biological target: T1, hCA IX (Homo sapiens, UniProt Q16790)
T1 construct: gene CA9; tumor-associated isoform

hCA XIII = biological target: T2, hCA XIII (Homo sapiens, UniProt Q8N1Q1)
T2 construct: gene CA13; cytosolic isoform

hCA VI = biological target: T3, hCA VI (Homo sapiens, UniProt P23280)
T3 construct: gene CA6

hCA XIV = biological target: T4, hCA XIV (Homo sapiens, UniProt Q9ULX7)
T4 construct: gene CA14
T4 sequence (Q9ULX7 16-290 limits assumed): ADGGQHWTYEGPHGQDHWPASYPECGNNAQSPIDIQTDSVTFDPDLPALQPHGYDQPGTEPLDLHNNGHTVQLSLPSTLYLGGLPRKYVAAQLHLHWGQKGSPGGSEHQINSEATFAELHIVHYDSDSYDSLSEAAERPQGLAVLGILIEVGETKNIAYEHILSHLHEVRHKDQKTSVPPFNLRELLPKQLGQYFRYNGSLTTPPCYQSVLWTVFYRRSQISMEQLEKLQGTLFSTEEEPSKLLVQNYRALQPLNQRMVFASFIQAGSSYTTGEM

T2 sequence (Q8N1Q1 whole entry, canonical isoform): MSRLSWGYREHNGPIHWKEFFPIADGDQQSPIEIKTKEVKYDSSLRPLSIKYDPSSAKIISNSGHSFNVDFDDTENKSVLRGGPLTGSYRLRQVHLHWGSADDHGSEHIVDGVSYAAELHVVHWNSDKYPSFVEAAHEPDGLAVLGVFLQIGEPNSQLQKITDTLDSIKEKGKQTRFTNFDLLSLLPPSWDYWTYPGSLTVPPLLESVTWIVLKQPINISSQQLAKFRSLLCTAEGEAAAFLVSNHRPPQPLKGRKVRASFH
T3 sequence (P23280 18-308): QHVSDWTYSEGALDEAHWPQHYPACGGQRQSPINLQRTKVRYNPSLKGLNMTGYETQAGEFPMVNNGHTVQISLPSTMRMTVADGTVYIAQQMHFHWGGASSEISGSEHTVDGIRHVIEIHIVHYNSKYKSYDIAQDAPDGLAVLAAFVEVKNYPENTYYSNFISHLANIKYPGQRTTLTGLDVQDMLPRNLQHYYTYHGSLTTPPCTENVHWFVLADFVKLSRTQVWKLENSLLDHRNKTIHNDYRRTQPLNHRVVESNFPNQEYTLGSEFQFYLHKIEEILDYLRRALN

Work on `CC1(C)O[C@@H]2[C@@H](CO[C@@]3(COS(N)(=O)=O)OC(C)(C)O[C@@H]23)O1` [Topiramate] yielded a Ki (hCA IX) of […], a Ki (hCA XIII) of 47 nM and a Ki (hCA VI) of 45 nM. For the same compound, the Ki (hCA XIV) was 1460 nM.

— paper PMC13266636 (ACS Medicinal Chemistry Letters, 2026)
